From US9492436B2, “Azabenzimidazole derivatives” (Boehringer Ingelheim International GmbH, priority 2013, dated 2016)

Molecular target: T1, AMPK complex 1 (containing alpha1beta1gamma1) (Homo sapiens, UniProt Q13131+Q9Y478)
T1 construct: GST (Glutathion S transferase) (N); made in house; host or cells: baculovirus; virus made in Sf9, expression in High Five cells
Assay: In vitro AMPK activation assay (ADP-Glo Kinase Assay)
Format: biochemical
Conditions: 30 μM ATP, 1 μM peptide, 60 min, room temperature
Text: Activated AMPK complex 1 (containing alpha1beta1gamma1) was obtained from baculovirus expression system. The gene encoding AMPK alpha1 was cloned into the pACG2T vector (BD Biosciences) to obtain a N-terminal Glutathion S transferase (GST)-fusion protein. The genes encoding AMPK beta 1 and gamma1 were cloned into the p2Bac dual multiple cloning site vector (Invitrogen) with beta1 under the control of the p10 promoter and gamma1 under the control of the PH promoter. The transfer vectors containing AMPK were co-transfected individually with AcPNV BacMagic-3 DNA (EMD Millipore) in Sf9 cells and the recombinant baculoviruses were harvested after 5 days, followed by 3 rounds of amplification of the virus stock in Sf9 cells. AMPK (alpha1beta1gamma1) was expressed in High Five 5 cells by co-infection of recombinant alpha1 virus and recombinant beta1/gamma1 virus for 72 h at 27° C. Cells were harvested by centrifugation and lysed by 3 freeze/thaw cycles in PBS with 10% glycerol and protease inhibitor cocktail (Roche). After centrifugation AMPK a1b1g1 in the supernatant was captured by immobilized glutathione (GE Healthcare), impurities were washed away with PBS and AMPK alpha1beta1gamma1 was eluted with PBS containing 20 mM reduced gluthathione. The protein buffer was then exchanged to PBS with 10% glycerol and protein concentration was determined by UV absorbance.
The white 384-well Optiplates (cat.no. 6007299) were purchased from PerkinElmer. The V9101 ADP-Glo Kinase Assay and ultra pure ATP (V915A) was purchased from Promega. The substrate for AMPK (NH2-HMRSAMSGLHLVKRR_CONH2) was purchased from Upstate (12-355).
Compounds were tested in either serial dilutions or single dose concentrations. The serial compound dilutions were prepared in 100% DMSO automatically. The final DMSO concentration in the assay was 0.1%.
The Compound Stock Solutions were 10 mM in 100% DMSO. The compounds were solubilised at room temperature.
In the 384-well plates 1.25 ul of test compound in assay buffer was mixed with 1.25 ul of AMPK and 1.25 μl of the peptide (final concentration of 1 μM) and 1.25 μl of ATP (final concentration of 30 μM), both dissolved in assay buffer. This step was followed by an incubation time of 60 min. Then 5 μl of ADP Glo Reagent was added. This was followed by 40 min of incubation. Then 10 μl of Kinase Detection Reagent was admixed. The plates were sealed and after an incubation period of 30 min, the luminescence signal was measured in an Envision reader. All incubation steps were accomplished at room temperature.
Each assay microtiter plate contained wells with vehicle controls instead of compound (0.1% DMSO in water) as reference for the low signal (100% CTL, low signal), and wells with serial dilutions of AMP (final 30 μM) as reference for high signals.
The luminescence signal generated was proportional to the ADP concentration produced and was correlated with AMPK activity. The analysis of the data was performed by the calculation of the percentage of ATP consumption of AMPK in the presence of the test compound compared to the consumption of ATP in the presence of AMPK without compound. (RLU(sample)/RLU(low control))*100[RLU=relative luminescence units]
An activator of the AMPK enzyme gave values above 100% CTL.
EC50 values based on dose response curves are calculated with the XIFIT software using the 4 Parameter Logistic Model or Sigmoidal Dose-Response Model.

T1 sequence (Q13131 whole entry): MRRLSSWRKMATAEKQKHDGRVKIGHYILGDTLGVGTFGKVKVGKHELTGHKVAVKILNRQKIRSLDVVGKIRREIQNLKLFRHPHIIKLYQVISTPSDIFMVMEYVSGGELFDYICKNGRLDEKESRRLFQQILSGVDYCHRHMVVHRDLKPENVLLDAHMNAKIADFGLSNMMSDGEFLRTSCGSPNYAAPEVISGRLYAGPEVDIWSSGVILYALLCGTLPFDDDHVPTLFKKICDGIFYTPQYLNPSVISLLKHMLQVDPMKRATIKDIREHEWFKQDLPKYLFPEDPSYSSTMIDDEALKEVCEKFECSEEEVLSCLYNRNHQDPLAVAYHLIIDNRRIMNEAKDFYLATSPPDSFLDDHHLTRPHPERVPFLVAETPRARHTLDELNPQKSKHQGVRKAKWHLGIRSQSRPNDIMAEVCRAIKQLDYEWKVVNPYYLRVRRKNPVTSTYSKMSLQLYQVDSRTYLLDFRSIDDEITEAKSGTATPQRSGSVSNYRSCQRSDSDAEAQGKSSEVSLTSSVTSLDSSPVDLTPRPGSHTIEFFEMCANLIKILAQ
T1 sequence (Q9Y478 whole entry): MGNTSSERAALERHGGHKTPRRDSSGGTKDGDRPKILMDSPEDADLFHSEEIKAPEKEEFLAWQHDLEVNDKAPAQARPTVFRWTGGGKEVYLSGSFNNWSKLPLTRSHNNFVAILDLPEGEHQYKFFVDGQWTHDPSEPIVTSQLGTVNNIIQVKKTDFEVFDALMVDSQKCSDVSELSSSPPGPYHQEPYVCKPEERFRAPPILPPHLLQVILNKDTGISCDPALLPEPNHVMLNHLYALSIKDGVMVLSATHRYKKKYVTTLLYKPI
T1 sequence (P54619 whole entry partner): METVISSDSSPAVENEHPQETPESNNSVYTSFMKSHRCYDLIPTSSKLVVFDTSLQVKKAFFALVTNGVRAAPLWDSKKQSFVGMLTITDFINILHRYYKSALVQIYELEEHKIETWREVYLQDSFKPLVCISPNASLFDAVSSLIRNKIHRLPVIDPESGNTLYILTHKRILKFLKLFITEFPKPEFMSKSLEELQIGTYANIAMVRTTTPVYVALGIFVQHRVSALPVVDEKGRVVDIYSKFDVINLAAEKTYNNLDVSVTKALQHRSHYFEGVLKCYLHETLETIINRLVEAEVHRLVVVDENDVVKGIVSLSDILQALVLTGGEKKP

Compound | EC50
N=S1(=O)CCC(c2ccc(-c3nc4[nH]c(O[C@@H]5CO[C@H]6[C@@H]5OC[C@H]6O)nc4cc3Cl)cc2)CC1 (single isomer, unassigned) [Example 54] | 114 nM
CS(C)(=O)=Nc1cccc(-c2ccc(-c3nc4[nH]c(O[C@@H]5CO[C@H]6[C@@H]5OC[C@H]6O)nc4cc3Cl)cc2)c1 [Example 14, N-(4′-(6-Chloro-2-((3R,3aR,6R,6aR)-6-hydroxyhexahydrofuro[3,2-b]furan-3-yloxy)-3H-imidazo[4,5-b]pyridin-5-yl)biphenyl-3-yl)-S,S-dimethylsulfoximide] | 6 nM
CC(C)S(C)(=O)=Nc1ccc(-c2ccc(-c3nc4[nH]c(O[C@@H]5CO[C@H]6[C@@H]5OC[C@H]6O)nc4cc3Cl)cc2)cc1 (stereo partly drawn) [Example 18, N-(4′-(6-Chloro-2-((3R,3aR,6R,6aR)-6-hydroxyhexahydrofuro[3,2-b]furan-3-yloxy)-3H-imidazo[4,5-b]pyridin-5-yl)biphenyl-4-yl)-S-isopropyl-S-methylsulfoximide] | 34 nM
C[S@](=O)(=NC(=O)c1ccc(-c2nc3[nH]c(O[C@@H]4CO[C@H]5[C@@H]4OC[C@H]5O)nc3cc2Cl)cc1)c1ccccc1 [Example 25, (R)-N-4-(6-Chloro-2-((3R,3aR,6R,6aR)-6-hydroxyhexahydrofuro[3,2-b]furan-3-yloxy)-3H-imidazo[4,5-b]pyridin-5-yl)-benzoyl-S-methyl-5-phenylsulfoximine] | 1200 nM
CS(=N)(=O)c1cccc(-c2ccc(-c3nc4[nH]c(O[C@@H]5CO[C@H]6[C@@H]5OC[C@H]6O)nc4cc3Cl)cc2)c1 (stereo partly drawn) [Example 41, (3R,3aR,6R,6aR)-6-(6-Chloro-5-(3′-(S-methylsulfonimidoyl)biphenyl-4-yl)-3H-imidazo[4,5-b]pyridin-2-yloxy)hexahydrofuro[3,2-b]furan-3-ol] | 209 nM
CS(C)(=O)=Nc1ccc2c(n1)CN(c1ccc(-c3nc4[nH]c(O[C@@H]5CO[C@H]6[C@@H]5OC[C@H]6O)nc4cc3Cl)cc1)C2 [Example 44, N-(6-{4-[6-Chloro-2-((3R,3aR,6R,6aR)-6-hydroxyhexahydrofuro[3,2-b]furan-3-yloxy)-3H-imidazo[4,5-b]pyridin-5-yl]-phenyl}-6,7-dihydro-5H-pyrrolo[3,4-b]pyridin-2-yl)-S,S-dimethylsulfoximide] | 66 nM
CS(C)(=O)=NC(=O)c1ccc(-c2ccc(-c3nc4[nH]c(O[C@@H]5CO[C@H]6[C@@H]5OC[C@H]6O)nc4cc3Cl)cc2)cc1 [Example 6, N-4′-(6-Chloro-2-((3R,3aR,6R,6aR)-6-hydroxyhexahydrofuro[3,2-b]furan-3-yloxy)-3H-imidazo[4,5-b]pyridin-5-yl)biphenyl-4-carbonyl-S,S-dimethylsulfoximide] | 2 nM
CS(=O)(=NC(=O)c1ccc(-c2nc3[nH]c(O[C@@H]4CO[C@H]5[C@@H]4OC[C@H]5O)nc3cc2Cl)cc1)c1cccnc1 (stereo partly drawn) [Example 19, N-4-(6-Chloro-2-((3R,3aR,6R,6aR)-6-hydroxyhexahydrofuro[3,2-b]furan-3-yloxy)-3H-imidazo[4,5-b]pyridin-5-yl)benzoyl-S-methyl-S-(pyridin-3-yl)-sulfoximine] | 55 nM
CS(C)(=O)=Nc1cnc(-c2ccc(-c3nc4[nH]c(O[C@@H]5CO[C@H]6[C@@H]5OC[C@H]6O)nc4cc3Cl)cc2)cn1 [Example 39, N-(5-{4-[6-Chloro-2-((3R,3aR,6R,6aR)-6-hydroxyhexahydrofuro[3,2-b]furan-3-yloxy)-3H-imidazo[4,5-b]pyridin-5-yl]-phenyl}-pyrazin-2-yl)-S,S-dimethylsulfoximide] | 8 nM
CS(=O)(=Nc1ccc(-c2ccc(-c3nc4[nH]c(O[C@@H]5CO[C@H]6[C@@H]5OC[C@H]6O)nc4cc3Cl)cc2)cc1)C1CC1 (stereo partly drawn) [Example 15, N-(4′-(6-Chloro-2-((3R,3aR,6R,6aR)-6-hydroxyhexahydrofuro[3,2-b]furan-3-yloxy)-3H-imidazo[4,5-b]pyridin-5-yl)biphenyl-4-yl)-S-cyclopropyl-S-methylsulfoximide] | 41 nM
O=C(N=S1(=O)CCCCC1)c1ccc(-c2nc3[nH]c(O[C@@H]4CO[C@H]5[C@@H]4OC[C@H]5O)nc3cc2Cl)cc1 [Example 24, 4-[6-Chloro-2-((3R,3aR,6R,6aR)-6-hydroxy-hexahydro-furo[3,2-b]furan-3-yloxy)-3H-imidazo[4,5-b]pyridin-5-yl]-N-(1-oxo-hexahydro-1λ6-thiopyran-1-ylidene)-benzamide] | 215 nM
CS(C)(=O)=Nc1ccnc(-c2ccc(-c3nc4[nH]c(O[C@@H]5CO[C@H]6[C@@H]5OC[C@H]6O)nc4cc3Cl)cc2)c1 [Example 37, N-(2-{4-[6-Chloro-2-((3R,3aR,6R,6aR)-6-hydroxyhexahydrofuro[3,2-b]furan-3-yloxy)-3H-imidazo[4,5-b]pyridin-5-yl]-phenyl}-pyridin-4-yl)-S,S-dimethylsulfoximide] | 47 nM
CS(C)(=O)=Nc1ccc2c(c1)CN(c1ccc(-c3nc4[nH]c(O[C@@H]5CO[C@H]6[C@@H]5OC[C@H]6O)nc4cc3Cl)cc1)C2 [Example 43, N-(2-{4-[6-Chloro-2-((3R,3aR,6R,6aR)-6-hydroxyhexahydrofuro[3,2-b]furan-3-yloxy)-3H-imidazo[4,5-b]pyridin-5-yl]-phenyl}-2,3-dihydro-1H-isoindol-5-yl)-S,S-dimethylsulfoximide] | 293 nM
CS(C)(=O)=Nc1ccc(-c2ccc(-c3nc4[nH]c(O[C@@H]5CO[C@H]6[C@@H]5OC[C@H]6O)nc4cc3Cl)cc2)nc1 [Example 30, N-(2-(4-(6-Chloro-2-((3R,3aR,6R,6aR)-6-hydroxyhexahydrofuro[3,2-b]furan-3-yloxy)-3H-imidazo[4,5-b]pyridin-5-yl)phenyl)pyridin-5-yl)-S,S-dimethylsulfoximide] | 2 nM
N=S1(=O)CCC(c2ccc(-c3nc4[nH]c(O[C@@H]5CO[C@H]6[C@@H]5OC[C@H]6O)nc4cc3Cl)cc2)CC1 (single isomer, unassigned) [Example 55] | 26 nM
CN=S1(=O)CC2CN(c3ccc(-c4nc5[nH]c(O[C@@H]6CO[C@H]7[C@@H]6OC[C@H]7O)nc5cc4Cl)cc3)CC2C1 (stereo partly drawn) [Example 57, (3R,3aR,6R,6aR)-6-{6-Chloro-5-[4-(2-methylimino-2-oxo-hexahydro-2λ^6-thieno[3,4-c]pyrrol-5-yl)-phenyl]-3H-imidazo[4,5-b]pyridin-2-yloxy}-hexahydro-furo[3,2-b]furan-3-ol] | 118 nM
CS(C)(=O)=NCc1ccnc(-c2ccc(-c3nc4[nH]c(O[C@@H]5CO[C@H]6[C@@H]5OC[C@H]6O)nc4cc3Cl)cc2)c1 [Example 46, N-(2-(4-(6-Chloro-2-((3R,3aR,6R,6aR)-6-hydroxyhexahydrofuro[3,2-b]furan-3-yloxy)-3H-imidazo[4,5-b]pyridin-5-yl)phenyl)pyridin-4-ylmethyl)-S,S-dimethylsulfoximide] | 37 nM
CS(C)(=N)=Nc1ccc(-c2ccc(-c3nc4[nH]c(O[C@@H]5CO[C@H]6[C@@H]5OC[C@H]6O)nc4cc3Cl)cc2)cc1 [Example 17, N-(4′-(6-Chloro-2-((3R,3aR,6R,6aR)-6-hydroxyhexahydrofuro[3,2-b]furan-3-yloxy)-3H-imidazo[4,5-b]pyridin-5-yl)biphenyl-4-yl)-S,S-dimethyl-sulfondiimine] | 1 nM
CS(=O)(=Nc1ccc(-c2nc3[nH]c(O[C@@H]4CO[C@H]5[C@@H]4OC[C@H]5O)nc3cc2Cl)cc1)c1ccncc1 (stereo partly drawn) [Example 26, N-(4-(6-Chloro-2-((3R,3aR,6R,6aR)-6-hydroxyhexahydrofuro[3,2-b]furan-3-yloxy)-3H-imidazo[4,5-b]pyridin-5-yl)phenyl)-S-methyl-S-(pyridin-4-yl)-sulfoximide] | 145 nM
CS(C)(=O)=Nc1ccc(-c2nc3[nH]c(O[C@@H]4CO[C@H]5[C@@H]4OC[C@H]5O)nc3cc2Cl)cc1 [Example 1] | 275 nM
